Laboratory results published in patent publication US20200024662A1, “METHODS FOR TREATING OPIOID ADDICTION” (ASSUREX HEALTH, INC., priority 2016, published 2020).
Entries after “also recorded” stand apart in the source; their conditions may differ.

Assays:
[1] = tested on: patients treated with Methadone in the START trial; test: Completion of 24-week Methadone treatment, START samples of Example 2; assay type: in vivo, human; details: 24-week treatment
Procedure: (§1) Samples from patients treated with Methadone in the START trial described in Example 1 above were used (N=352). […] Each model was tested as described below against Sample 1, Sample 2 and/or the Full Sample.

[2] = tested on: patients treated with Methadone in the START trial; test: PK model (predicted exposure) binning vs Methadone completion; assay type: in vivo, human
Procedure: (§2) For the model analyses, models were developed that sort patients into one of three categories, Green (‘G’) Yellow (‘Y’) or Red (‘R’). Patients determined to be high risk for non-completion by the model are placed into the Red Bin. Patients at intermediate risk of non-completion are placed in the Yellow Bin, and for this study, Yellow Bin patients are treated the same as patients found to be at Low Risk of non-completion, or those who are placed in the Green Bin. Thus, the Green and Yellow bins are combined for analysis.
The PK model represents a physiologically based pharmacokinetic algorithm that combines combinatorial pharmacogenetics with a physiological algorithm for predicting medication exposure, as described elsewhere herein. Model assignments to G Y or R were based on the therapeutic ranges provided by the literature for methadone as shown in Table 15.
as §1
(§3) Pearson's product moment, Chi-square with Yates correction were calculated. Diagnostic tests, odds ratios, Pearson's product moment, Chi-square with Yates correction were calculated using MEDCALC and R version 3.3.1.

[3] = tested on: patients treated with Methadone in the START trial; test: PK/PD Model 1 binning vs Methadone completion; assay type: in vivo, human
Procedure: as §2
(§4) Three separate PK/PD Models were generated by combining the PK model with each of the three PD models separately as follows. For each PKPD model, the corresponding PD risk score was added to the raw PK score (bin). A total PD risk score that was negative, represents a reduction of the baseline PK score, while a total PD risk score that was positive represented an increase in the baseline PK score.
as §1, §3
For PK/PD Model 1, final score was the sum of the PD 1 score and the PK score, where PK green=1, PK Yellow=2 and PK red=3. Bins were assigned according to Table 61.

[4] = tested on: patients treated with Methadone in the START trial; test: PK/PD Model 3 binning vs Methadone completion; assay type: in vivo, human
Procedure: as §2, §4, §1, §3

[5] = tested on: START trial patients; test: Combinatorial gene modeling: composite genetic risk score (biology-based and data-based) vs non-completion
[6] = tested on: START trial patients; test: Single-gene logistic regression of non-completion of 24-week opioid agonist replacement therapy (START trial)
[7] = PK/PD Model 1, Full Sample, Green bin
[8] = PK/PD Model 1, Full Sample, Red bin
[9] = PK/PD Model 1, Full Sample, Yellow bin
[10] = PK/PD Model 1, Sample 1, Green bin
[11] = PK/PD Model 1, Sample 1, Red bin
[12] = PK/PD Model 1, Sample 1, Yellow bin
[13] = PK/PD Model 1, Sample 2, Green bin
[14] = PK/PD Model 1, Sample 2, Red bin
[15] = PK/PD Model 1, Sample 2, Yellow bin
[16] = PK/PD Model 3, Full Sample, Green bin, Risk Score −1.3 to 1.3
[17] = PK/PD Model 3, Full Sample, Red bin, Risk Score 2.4+
[18] = PK/PD Model 3, Full Sample, Yellow bin, Risk Score 1.4 to 2.3
[19] = PK/PD Model 3, Sample 1, Green bin, Risk Score −0.8 to 1.3
[20] = PK/PD Model 3, Sample 1, Red bin, Risk Score 2.4 to 5.1
[21] = PK/PD Model 3, Sample 1, Yellow bin, Risk Score 1.4 to 2.3
[22] = PK/PD Model 3, Sample 2, Green bin, Risk Score −1.1 to 0.8
[23] = PK/PD Model 3, Sample 2, Red bin, Risk Score 2.2 to 4.3
[24] = PK/PD Model 3, Sample 2, Yellow bin, Risk Score 0.9 to 2.1
[25] = composite genetic risk score vs non-completion, adjusted for Dose-bin, 25 gene combinations
[26] = Table 4.3, 24-week treatment, logistic regression with dose category

## CCC(=O)C(CC(C)N(C)C)(c1ccccc1)c1ccccc1 (centres unmarked) [Methadone, methadone]
[1]; Sample 1 (N=176)
  Completers: 156
  non-completers: 20
[1]; Sample 2 (N=176)
  Completers: 159
  non-completers: 17
[2]; Full Sample, Green bin
  Completers: 181
  Non Completers: 11
[2]; Full Sample, Red bin
  Completers: 33
  Non Completers: 22
[2]; Full Sample, Yellow bin
  Completers: 93
  Non Completers: 12
[2]; Sample 1, Green bin
  Completers: 91
  Non Completers: 6
[2]; Sample 1, Red bin
  Completers: 12
  Non Completers: 8
[2]; Sample 1, Yellow bin
  Completers: 53
  Non Completers: 6
[2]; Sample 2, Green bin
  Completers: 94
  Non Completers: 7
[2]; Sample 2, Red bin
  Completers: 13
  Non Completers: 6
[2]; Sample 2, Yellow bin
  Completers: 52
  Non Completers: 4
[3]; [7]
  Completers: 262
  Non Completers: 23
[3]; [8]
  Completers: 2
  Non Completers: 6
[3]; [9]
  Completers: 43
  Non Completers: 16
[3]; [10]
  Completers: 137
  Non Completers: 11
[3]; [11]
  Completers: 2
  Non Completers: 3
[3]; [12]
  Completers: 17
  Non Completers: 6
[3]; [13]
  Completers: 134
  Non Completers: 10
[3]; [14]
  Completers: 0
  Non Completers: 2
[3]; [15]
  Completers: 25
  Non Completers: 5
[4]; [16]
  Completers: 150
  Non Completers: 7
[4]; [17]
  Completers: 64
  Non Completers: 28
[4]; [18]
  Completers: 93
  Non Completers: 10
[4]; [19]
  Completers: 80
  Non Completers: 2
[4]; [20]
  Completers: 26
  Non Completers: 12
[4]; [21]
  Completers: 50
  Non Completers: 6
[4]; [22]
  Completers: 77
  Non Completers: 2
[4]; [23]
  Completers: 24
  Non Completers: 10
[4]; [24]
  Completers: 58
  Non Completers: 5
[5]; Biology-Based, ORG4-CYP2B6-CYP2C19
  Odds Ratio for Non-Completers: 1.38
[5]; Biology-Based, ORG4-CYP2C19
  Odds Ratio for Non-Completers: 1.53
[5]; Biology-Based, ORG4-CYP2C19-1A2
  Odds Ratio for Non-Completers: 1.53
[5]; Biology-Based, ORG4-CYP2C19-2C9
  Odds Ratio for Non-Completers: 1.44
[5]; Biology-Based, ORG4-CYP2C19-2D6
  Odds Ratio for Non-Completers: 1.34
[5]; Data-Based, ORG4-CYP2B6-CYP2C19
  Odds Ratio for Non-Completers: 1.9
[5]; Data-Based, ORG4-CYP2C19
  Odds Ratio for Non-Completers: 1.76
[5]; Data-Based, ORG4-CYP2C19-1A2
  Odds Ratio for Non-Completers: 1.46
[5]; Data-Based, ORG4-CYP2C19-2C9
  Odds Ratio for Non-Completers: 1.77
[5]; Data-Based, ORG4-CYP2C19-2D6
  Odds Ratio for Non-Completers: 1.72
[5]; [25]
  composite endpoints significant, biology-based model: 7 of 25
  composite endpoints significant, data-based model: 23 of 25
[6]; [26]
  OR (95% CI) of non-completion, COMT VAL/MET vs MET/MET: 2.76 (0.99-7.68)
  OR (95% CI) of non-completion, COMT VAL/VAL vs MET/MET: 3.16 (1.07-9.31)
  OR (95% CI) of non-completion, COMT VAL/VAL vs VAL/MET: 1.14 (0.56-2.34)
  OR (95% CI) of non-completion, CYP3A4 EM vs IM + PM: 1.66 (0.48-5.77)
  OR (95% CI) of non-completion, HTR2A Intermediate vs Normal: 0.58 (0.25-1.36)
  OR (95% CI) of non-completion, HTR2A Intermediate vs Reduced: 0.73 (0.35-1.52)
  OR (95% CI) of non-completion, HTR2A Normal vs Reduced: 1.26 (0.51-3.09)
  OR (95% CI) of non-completion, SLC6A4 L/L vs S/S: 0.54 (0.23-1.23)
  OR (95% CI) of non-completion, SLC6A4 L/S vs L/L: 0.77 (0.36-1.65)
  OR (95% CI) of non-completion, SLC6A4 L/S vs S/S: 0.41 (0.19-0.91)
[6]; […]
  times more likely not to complete the 24-week treatment, SLC6A4 reduced phenotype compared to intermediate phenotype: 2.41 times
[6]; significance at p-value ≤0.05 in the single-gene logistic regression models
  effect of dose level (Dose-bin-category covariate) on non-completion: significant for all eleven genes; also recorded: played an important role
[6]; text statement of odds ratio
  times more likely not to complete the 24-week treatment, COMT high phenotype compared to reduced phenotype: 3.16 times
